Paper PMC9952648, “Structural Features Governing the Metabolic Stability of Tetraethyl-Substituted Nitroxides in Rat Liver Microsomes” (Antioxidants, 2023)
Like-named read-outs stand apart in the source and are kept apart here. Marks after values point to notes of the source that are not given here.

Assays:
[1] = Reduction of nitroxides by excess ascorbate monitored by stopped-flow EPR; assay type: physicochemical; details: potassium phosphate buffer 0.1 M, pH 7.4, equilibrated with air, 21 °C; This work
Excerpt: A 4-bore AquaX quartz cell (Bruker) inserted into the cavity was connected to a Bio-Logic MPS-51 stop-flow apparatus with three syringes (Bio-Logic, Claix, France) controlled by the Bio-Logic MPS software. […] The initial second-order reaction rate constant of the reaction of nitroxides with ascorbate, k0 values was derived from experimental results as previously described.

[2] = system: rat liver microsomes (RLM); assay: Aerobic incubation of nitroxides with rat liver microsomes and NADPH monitored by EPR; details: for Nitroxide recovered upon reoxidation with potassium ferricyanide: ferricyanide 1 mM added to whole system after 30 min incubation; for Initial rate of decrease, + Clo / Initial rate of decrease, + Clo (per P450): whole system + clotrimazole 25 μM; for Initial rate of decrease, + Clo / Initial rate of decrease, + Clo (per P450) / Initial rate of decrease, +DPI / Initial rate of decrease, +DPI (per P450) / Initial rate of decrease, -NADPH / Initial rate of decrease, -RLM: nitroxide 100 µM; for Initial rate of decrease, +DPI / Initial rate of decrease, +DPI (per P450): whole system + diphenyliodonium chloride 100 μM; for Initial rate of decrease, WS / Initial rate of decrease, WS (per P450): whole system: nitroxide 100 µM + RLM + NADPH, pH 7.4, 21 °C; for Initial rate of decrease, -NADPH: without NADPH; for Initial rate of decrease, -RLM: without RLM; for Decay in 30 min (conversion by P450): RLM + NADPH
[3] = cited from earlier work
liver homogenates = system: liver homogenates; set-up: method as in PMID 34641310; details: ref 29; cited from earlier work
[4] = system: rat liver microsomes (RLM); details: anaerobic; for EPR signal regenerated by reoxidation with potassium ferricyanide: ferricyanide 1 mM added to whole system after 30 min incubation (nitroxide 5: with simultaneous Clo 25 μM)
Experimental: Addition of NADPH to a final concentration of 1 mM started the reaction. Samples were mixed and transferred to glass microcapillary pipettes (50 μL, Hirschmann) that had been previously purged with N2.

[5] = reaction measured with ascorbate and glutathione mixtures
[6] = whole system + clotrimazole 25 μM, nitroxide 100 μM
[7] = whole system + diphenyliodonium chloride 100 μM, nitroxide 100 μM
[8] = whole system: nitroxide 100 μM + RLM + NADPH, pH 7.4, 21 °C

Compound	Initial second-order reaction rate constant k0 for reduction by excess ascorbate [1] [M⁻¹ s⁻¹]	Nitroxide recovered upon reoxidation with potassium ferricyanide [2]	Initial rate of decrease, + Clo [2]	Initial rate of decrease, +DPI [2]	Initial rate of decrease, WS [2] [nmol·min^−1·mg^−1 prot]	Initial rate of decrease, WS (per P450) [2] [nmol·min^−1·nmol^−1 P450]	Initial rate of decrease, -NADPH [2]	Initial rate of decrease, -RLM [2]	Initial second-order reaction rate constant k0 for reduction by excess ascorbate [3, 5]	Initial second-order reaction rate constant k0 for reduction by excess ascorbate ([3]; ref 42) [M⁻¹ s⁻¹]	EPR signal regenerated by reoxidation with potassium ferricyanide [4]	also measured
CC1(C)CC(C(=O)O)C(C)(C)N1[O] (centres unmarked) [Nitroxide 2, 3-carboxy-2,2,5,5-tetramethyl-1-pyrrolidinyloxyl]	0.072 ± 0.003	42%	0.94 ± 0.09 nmol·min^−1·mg^−1 prot	2.1 ± 0.3 nmol·min^−1·mg^−1 prot	4.8 ± 0.8	1.2 ± 0.1	0.0 ** nmol·min^−1·mg^−1 prot	0.0 ** nmol·min^−1·mg^−1 prot	0.060 ± 0.003 ^a M^−1·s^−1	0.079 ± 0.001	–	Initial rate of decrease, + Clo (per P450) [2]: 0.24 ± 0.03 nmol·min^−1·nmol^−1 P450; Initial rate of decrease, +DPI (per P450) [2]: 0.54 ± 0.07 nmol·min^−1·nmol^−1 P450; Initial second-order reaction rate constant k0 for reduction by excess ascorbate ([3]; ref 70): 0.11 ± 0.01 M⁻¹ s⁻¹
CCC1(CC)CC(CN)C(CC)(CC)N1[O] (centres unmarked) [Compound 6, 3-(aminomethyl)-2,2,5,5-tetraethylpyrrolidineyloxyl]	–	–	–	–	–	–	–	–	–	–	–	Decay in liver homogenates (liver homogenates): significantly decayed
CCC1(CC)c2ccc(C(=O)O)cc2C(CC)(CC)N1[O] [Nitroxide 5, 5-carboxy-1,1,3,3-tetraethyl-2-isoindolinyloxyl]	0.02 ± 0.01	not the case	0.0 *** nmol·min^−1·mg^−1 prot	0.0 *** nmol·min^−1·mg^−1 prot	3.4 ± 0.2	0.88 ± 0.05	0.0 *** nmol·min^−1·mg^−1 prot	0.0 *** nmol·min^−1·mg^−1 prot	–	–	30%	New six-line paramagnetic species formed, share of the initial nitroxide ([2]; 300 μM nitroxide, RLM 30 μM P450, 2 mM NADPH, 21 °C, at 10 min (maximum)): 7%
CC1(C)CC(=O)CC(C)(C)N1[O] [Nitroxide 1, 2,2,6,6-tetramethyl-4-oxo(piperidine-1-yloxyl) radical, reference compound]	6.9 ± 0.1	15%	1.2 ± 0.3 nmol·min^−1·mg^−1 prot	5.1 ± 0.3 nmol·min^−1·mg^−1 prot	11.1 ± 0.8	2.8 ± 0.2	0.0 *** nmol·min^−1·mg^−1 prot	0.0 *** nmol·min^−1·mg^−1 prot	7.2 ± 0.8 ^a M^−1·s^−1	5.75 ± 0.04	37%	Initial rate of decrease, + Clo [4, 6]: 4.3 ± 0.4 nmol·min^−1·mg^−1·prot; Initial rate of decrease, + Clo (per P450) [4, 6]: 1.1 ± 0.2 nmol·min^−1·nmol^−1·P450; Initial rate of decrease, +DPI [4, 7]: 2.7 ± 0.3 nmol·min^−1·mg^−1·prot; Initial rate of decrease, +DPI (per P450) [4, 7]: 0.70 ± 0.08 nmol·min^−1·nmol^−1·P450; Initial rate of decrease, WS [4, 8]: 19.3 ± 0.9 nmol·min^−1·mg^−1·prot; Initial rate of decrease, WS (per P450) [4, 8]: 5.0 ± 0.5 nmol·min^−1·nmol^−1·P450; Initial rate of decrease, -NADPH ([4]; without NADPH, nitroxide 100 μM): 0.0 ** nmol·min^−1·mg^−1·prot; Initial rate of decrease, -RLM ([4]; without RLM, nitroxide 100 μM): 0.0 ** nmol·min^−1·mg^−1·prot; Initial rate of decrease, + Clo (per P450) [2]: 0.30 ± 0.09 nmol·min^−1·nmol^−1 P450; Initial rate of decrease, +DPI (per P450) [2]: 1.31 ± 0.07 nmol·min^−1·nmol^−1 P450; Initial second-order reaction rate constant k0 for reduction by excess ascorbate ([3]; ref 57): 6.9 ± 0.7 M⁻¹ s⁻¹
CCC1(CC)CC(C(=O)O)C(CC)(CC)N1[O] (centres unmarked) [Nitroxide 3, 3-carboxy-2,2,5,5-tetraethyl-1-pyrrolidinyloxyl]	0.0011 ± 0.0002	not the case	0.0 ** nmol·min^−1·mg^−1 prot	0.0 ** nmol·min^−1·mg^−1 prot	1.8 ± 0.2	0.46 ± 0.05	0.0 ** nmol·min^−1·mg^−1 prot	0.0 ** nmol·min^−1·mg^−1 prot	0.0011 ± 0.0002 ^a M^−1·s^−1	0.002 ± 0.001	hardly detectable	Decay in 30 min (conversion by P450) [2]: 5–10%; Initial second-order reaction rate constant k0 for reduction by excess ascorbate ([3]; ref 30): ≤0.001 M⁻¹ s⁻¹
CCC1(CC)CC(CNC(=O)C[P+](c2ccccc2)(c2ccccc2)c2ccccc2)C(CC)(CC)N1[O].[Cl-] (centres unmarked) [Compound 7, 3-(2-triphenylphosphonio)acetamidomethyl-2,2,5,5-tetraethylpyrrolidine-1-oxyl chloride]	–	–	–	–	–	–	–	–	–	–	–	Decay in liver homogenates (liver homogenates): significantly decayed
CCC1(CC)C=C(C(=O)O)C(CC)(CC)N1[O] [Nitroxide 4, 3-carboxy-2,2,5,5-tetrethyl-pyrrolinyloxyl]	0.0077 ± 0.0009	not the case	0.0 ** nmol·min^−1·mg^−1 prot	0.0 ** nmol·min^−1·mg^−1 prot	0.84 ± 0.09	0.22 ± 0.03	0.0 ** nmol·min^−1·mg^−1 prot	0.0 ** nmol·min^−1·mg^−1 prot	0.00122 ± 0.00003 ^a M^−1·s^−1	–	hardly detectable	Decay in 30 min (conversion by P450) [2]: 5–10%
